Like-named read-outs stand apart in the source and are kept apart here. Blank lines part the entries; values can stand above or below the molecule they belong to.
Molecular target: T1, LIN28–let-7 interaction (Homo sapiens, UniProt Q9H9Z2)
T1 construct: Purified LIN28A (residues 16–187) was incubated at a concentration of 200 nM; His-tag (cleaved yes); made in house; host or cells: Escherichia coli BL21(DE3)
T1 sequence (Q9H9Z2 16-187): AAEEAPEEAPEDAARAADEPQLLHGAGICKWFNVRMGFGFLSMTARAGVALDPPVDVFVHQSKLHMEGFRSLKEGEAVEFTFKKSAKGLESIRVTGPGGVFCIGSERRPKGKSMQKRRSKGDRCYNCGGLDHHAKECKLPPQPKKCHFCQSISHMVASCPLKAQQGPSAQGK
Test: Fluorescence polarization (FP) assay, LIN28A (residues 16–187) and FAM-labeled preE-let-7f-1
Format: binding
Details: for IC50: Table 1, quadruplicate, eight concentrations, read-out: IC50, LIN28–let-7 inhibitory activity; for FP, Average (mP): raw data Table S3, four replicates

[1] = starting from 30 μM, extrapolated based on the observed IC50 curves
[2] = starting from a maximum of 60 μM, extrapolated based on the observed IC50 curves

SMILES: O=C(O)c1ccc(C2C(C(=O)c3ccccc3)=C(O)C(=O)N2c2cccc(C(=O)O)c2)cc1 (stereo not drawn) [C881]
IC50 [1]: > 100 µM

SMILES: O=C(O)c1ccc(C2C(C(=O)c3ccccc3)=C(O)C(=O)N2c2ccc(C(=O)O)cc2)cc1 (stereo not drawn) [C882]
IC50 [1]: > 100 µM

SMILES: O=C(O)c1cccc(N2C(=O)C(O)=C(C(=O)c3ccc(Br)cc3)C2c2ccc([N+](=O)[O-])cc2)c1 (stereo not drawn) [C891]
IC50 [1]: > 100 µM

SMILES: O=C(O)c1ccc(C2C(C(=O)c3ccc(Br)cc3)=C(O)C(=O)N2c2ccc(O)c(C(=O)O)c2)cc1 (stereo not drawn) [C893]
IC50 [1]: 30 to 40 µM

SMILES: O=C(O)c1ccc(C2C(C(=O)c3ccc(Br)cc3)=C(O)C(=O)N2c2cccc(C(=O)O)c2)cc1 (stereo not drawn) [C894]
IC50 [1]: > 100 µM

SMILES: O=C(O)c1ccc(C2C(C(=O)c3ccc(Br)cc3)=C(O)C(=O)N2c2ccc(C(=O)O)cc2)cc1 (stereo not drawn) [C895]
IC50 [1]: > 100 µM

SMILES: O=C(O)c1cccc(N2C(=O)C(O)=C(C(=O)c3ccccc3)C2c2ccc(-c3nccs3)cc2)c1 (stereo not drawn) [C897]
IC50 [1]: 30 to 40 µM

SMILES: O=C(C1=C(O)C(=O)N(c2cccc(-c3nnn[nH]3)c2)C1c1ccc(-c2nccs2)cc1)c1ccccc1 (stereo not drawn) [C898]
IC50 [1]: > 100 µM

SMILES: O=C(C1=C(O)C(=O)N(c2ccc(C(=O)O)c(O)c2)C1c1ccc(-c2nccs2)cc1)c1ccc(Br)cc1 (stereo not drawn) [PH-30]
IC50 [2]: > 100 µM
FP, Average (mP) (0.041 μM compound): 110.75 mP
FP, Average (mP) (0.123 μM compound): 116.25 mP
FP, Average (mP) (0.368 μM compound): 115.75 mP
FP, Average (mP) (1.103 μM compound): 116.25 mP
FP, Average (mP) (3.125 μM compound): 107.00 mP
FP, Average (mP) (9.375 μM compound): 111.25 mP
FP, Average (mP) (29.688 μM compound): 107.25 mP
FP, Average (mP) (59.375 μM compound): 98.68 mP

SMILES: O=C(C1=C(O)C(=O)N(c2ccc(O)cc2)C1c1ccc(-c2nccs2)cc1)c1ccc(Br)cc1 (stereo not drawn) [PH-35]
IC50 [2]: > 100 µM
FP, Average (mP) (0.041 μM compound): 115.25 mP
FP, Average (mP) (0.123 μM compound): 112.75 mP
FP, Average (mP) (0.368 μM compound): 116.50 mP
FP, Average (mP) (1.103 μM compound): 109.50 mP
FP, Average (mP) (3.125 μM compound): 110.25 mP
FP, Average (mP) (9.375 μM compound): 104.00 mP
FP, Average (mP) (29.688 μM compound): 104.65 mP
FP, Average (mP) (59.375 μM compound): 93.48 mP

SMILES: O=C(C1=C(O)C(=O)N(c2ccc(O)c([N+](=O)[O-])c2)C1c1ccc(-c2nccs2)cc1)c1ccccc1 (stereo not drawn) [PH-37]
IC50 (starting from a maximum concentration of 60 μM): 41 µM
FP, Average (mP) (0.041 μM compound): 113.25 mP
FP, Average (mP) (0.123 μM compound): 106.48 mP
FP, Average (mP) (0.368 μM compound): 115.75 mP
FP, Average (mP) (1.103 μM compound): 111.25 mP
FP, Average (mP) (3.125 μM compound): 111.50 mP
FP, Average (mP) (9.375 μM compound): 95.58 mP
FP, Average (mP) (29.688 μM compound): 86.53 mP
FP, Average (mP) (59.375 μM compound): 71.50 mP

The remaining lines, values ahead:

IC50 [1]: > 100 µM
SMILES: COc1ccc(C(=O)C2=C(O)C(=O)N(c3cccc(C(=O)O)c3)C2c2ccc([N+](=O)[O-])cc2)cc1 (stereo not drawn) [C883]

IC50 [1]: > 100 µM
SMILES: COc1ccc(C(=O)C2=C(O)C(=O)N(c3ccc(C(=O)O)cc3)C2c2ccc([N+](=O)[O-])cc2)cc1 (stereo not drawn) [C884]

IC50 [1]: 30 to 40 µM
SMILES: COc1ccc(C(=O)C2=C(O)C(=O)N(c3ccc(O)c(C(=O)O)c3)C2c2ccc(C(=O)O)cc2)cc1 (stereo not drawn) [C885]

IC50 [1]: > 100 µM
SMILES: COc1ccc(C(=O)C2=C(O)C(=O)N(c3cccc(C(=O)O)c3)C2c2ccc(C(=O)O)cc2)cc1 (stereo not drawn) [C886]

IC50 [1]: > 100 µM
SMILES: COc1ccc(C(=O)C2=C(O)C(=O)N(c3ccc(C(=O)O)cc3)C2c2ccc(C(=O)O)cc2)cc1 (stereo not drawn) [C887]

IC50 [1]: > 100 µM
SMILES: COc1ccc(C(=O)C2=C(O)C(=O)N(c3cccc(-c4nnn[nH]4)c3)C2c2ccc(C(=O)O)cc2)cc1 (stereo not drawn) [C888]

IC50 [1]: > 100 µM
SMILES: O=C(C1=C(O)C(=O)N(c2cccc(-c3nnn[nH]3)c2)C1c1ccc([N+](=O)[O-])cc1)c1ccc(Br)cc1 (stereo not drawn) [C892]

IC50 [1]: > 100 µM
SMILES: O=C(O)c1ccc(C2C(C(=O)c3ccc(Br)cc3)=C(O)C(=O)N2c2cccc(-c3nnn[nH]3)c2)cc1 (stereo not drawn) [C896]

IC50 [1]: > 100 µM
SMILES: COc1ccc(C(=O)C2=C(O)C(=O)N(c3cccc(C(=O)O)c3)C2c2ccc(-c3nccs3)cc2)cc1 (stereo not drawn) [C900]

IC50 [1]: > 100 µM
SMILES: COc1ccc(C(=O)C2=C(O)C(=O)N(c3cccc(-c4nnn[nH]4)c3)C2c2ccc(-c3nccs3)cc2)cc1 (stereo not drawn) [C901]

— PMC8201479, “Trisubstituted Pyrrolinones as Small-Molecule Inhibitors Disrupting the Protein–RNA Interaction of LIN28 and Let-7” (ACS Medicinal Chemistry Letters, 2021)
